Assay results: ChEMBL document CHEMBL1201862, “PubChem BioAssay data set” (2004)
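Following 48 hours of exposure in 96-well plates, responses at five concentrations were used to interpolate endpoints linearly. Abbreviation: GI50, concentration required for 50% inhibition of growth.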 Active and inactive are the calls of the source. No stated cut-off is given here; in the data, active = GI50 up to about 1.1 µM and inactive = higher.

Experiments:
Assay in all cases: growth of human tumour cells (NCI), 48 h
NCI-H460 = system: NCI-H460
SF-268 = system: SF-268
MCF7 = system: MCF7
SNB-75 = system: SNB-75
ACHN = system: ACHN
EKVX = system: EKVX
OVCAR-8 = system: OVCAR-8
MOLT-4 = system: MOLT-4
A549 = system: A549
NCI/ADR-RES = system: NCI/ADR-RES
HCT-15 = system: HCT-15
HCC 2998 = system: HCC 2998
TK-10 = system: TK-10
BT-549 = system: BT-549
IGROV-1 = system: IGROV-1
SK-MEL-5 = system: SK-MEL-5
CCRF-CEM = system: CCRF-CEM
SW-620 = system: SW-620
OVCAR-3 = system: OVCAR-3
Malme-3M = system: Malme-3M
HCT-116 = system: HCT-116
HOP-92 = system: HOP-92
M14 = system: M14
SK-OV-3 = system: SK-OV-3
UACC-257 = system: UACC-257
K562 = system: K562
MDA-N = system: MDA-N
SN12C = system: SN12C
786-0 = system: 786-0
SF-295 = system: SF-295
SK-MEL-28 = system: SK-MEL-28
NCI-H23 = system: NCI-H23
SK-MEL-2 = system: SK-MEL-2
SF-539 = system: SF-539
HOP-62 = system: HOP-62
RPMI-8226 = system: RPMI-8226
HT-29 = system: HT-29
CAKI-1 = system: CAKI-1
PC-3 = system: PC-3
KM12 = system: KM12
RXF 393 = system: RXF 393
OVCAR-5 = system: OVCAR-5
U-251 = system: U-251
UO-31 = system: UO-31
COLO 205 = system: COLO 205
NCI-H226 = system: NCI-H226
NCI-H522 = system: NCI-H522
HL-60 = system: HL-60
OVCAR-4 = system: OVCAR-4
DU-145 = system: DU-145
SNB-19 = system: SNB-19
SR = system: SR
UACC-62 = system: UACC-62
A498 = system: A498
MDA-MB-435 = system: MDA-MB-435
MDA-MB-231 = system: MDA-MB-231

Compound: O=C1c2ccccc2C2=Nc3ccncc3CN12
- GI50 (NCI-H460): > 100 µM (inactive)
- GI50 (SF-268): > 100 µM (inactive)
- GI50 (MCF7): > 100 µM (inactive)
- GI50 (SNB-75): 74.5 µM (inactive)
- GI50 (ACHN): > 100 µM (inactive)
- GI50 (EKVX): 25.9 µM (inactive)
- GI50 (OVCAR-8): > 100 µM (inactive)
- GI50 (MOLT-4): > 100 µM (inactive)
- GI50 (A549): > 100 µM (inactive)
- GI50 (NCI/ADR-RES): > 100 µM (inactive)
- GI50 (HCT-15): > 100 µM
- GI50 (HCC 2998): > 100 µM (inactive)
- GI50 (TK-10): > 100 µM (inactive)
- GI50 (BT-549): > 100 µM (inactive)
- GI50 (IGROV-1): > 100 µM (inactive)
- GI50 (SK-MEL-5): > 100 µM (inactive)
- GI50 (CCRF-CEM): > 100 µM (inactive)
- GI50 (SW-620): > 100 µM (inactive)
- GI50 (OVCAR-3): > 100 µM (inactive)
- GI50 (Malme-3M): > 100 µM (inactive)
- GI50 (HCT-116): > 100 µM (inactive)
- GI50 (HOP-92): > 100 µM (inactive)
- GI50 (M14): > 100 µM (inactive)
- GI50 (SK-OV-3): > 100 µM (inactive)
- GI50 (UACC-257): > 100 µM (inactive)
- GI50 (K562): > 100 µM (inactive)
- GI50 (MDA-N): > 100 µM (inactive)
- GI50 (SN12C): > 100 µM (inactive)
- GI50 (786-0): > 100 µM (inactive)
- GI50 (SF-295): > 100 µM (inactive)
- GI50 (SK-MEL-28): > 100 µM (inactive)
- GI50 (NCI-H23): > 100 µM (inactive)
- GI50 (SK-MEL-2): > 100 µM (inactive)
- GI50 (SF-539): > 100 µM (inactive)
- GI50 (HOP-62): > 100 µM (inactive)
- GI50 (RPMI-8226): > 100 µM (inactive)
- GI50 (HT-29): > 100 µM (inactive)
- GI50 (CAKI-1): > 100 µM (inactive)
- GI50 (PC-3): > 100 µM (inactive)
- GI50 (KM12): 90.2 µM (inactive)
- GI50 (RXF 393): > 100 µM (inactive)
- GI50 (OVCAR-5): > 100 µM (inactive)
- GI50 (U-251): > 100 µM (inactive)
- GI50 (UO-31): > 100 µM (inactive)
- GI50 (COLO 205): > 100 µM (inactive)
- GI50 (NCI-H226): > 100 µM (inactive)
- GI50 (NCI-H522): > 100 µM (inactive)
- GI50 (HL-60): > 100 µM (inactive)
- GI50 (OVCAR-4): > 100 µM (inactive)
- GI50 (DU-145): > 100 µM (inactive)
- GI50 (SNB-19): > 100 µM (inactive)
- GI50 (SR): > 100 µM (inactive)
- GI50 (UACC-62): > 100 µM (inactive)

Compound: CC1(C)/C(=N\O)C2(C#N)CCC1C2 (stereo not given)
- GI50 (NCI-H460): > 100 µM (inactive)
- GI50 (SF-268): > 100 µM (inactive)
- GI50 (SNB-75): > 100 µM (inactive)
- GI50 (ACHN): > 100 µM (inactive)
- GI50 (OVCAR-8): > 100 µM (inactive)
- GI50 (MOLT-4): > 100 µM (inactive)
- GI50 (NCI/ADR-RES): > 100 µM (inactive)
- GI50 (A498): > 100 µM (inactive)
- GI50 (HCT-15): > 100 µM
- GI50 (HCC 2998): > 100 µM (inactive)
- GI50 (TK-10): > 100 µM (inactive)
- GI50 (MDA-MB-435): > 100 µM (inactive)
- GI50 (BT-549): > 100 µM (inactive)
- GI50 (CCRF-CEM): > 100 µM (inactive)
- GI50 (SW-620): > 100 µM (inactive)
- GI50 (HOP-92): > 100 µM (inactive)
- GI50 (UACC-257): > 100 µM (inactive)
- GI50 (K562): > 100 µM (inactive)
- GI50 (MDA-N): > 100 µM (inactive)
- GI50 (SN12C): > 100 µM (inactive)
- GI50 (SK-MEL-28): > 100 µM (inactive)
- GI50 (MDA-MB-231): > 100 µM (inactive)
- GI50 (NCI-H23): > 100 µM (inactive)
- GI50 (RPMI-8226): > 100 µM (inactive)
- GI50 (CAKI-1): > 100 µM (inactive)
- GI50 (KM12): > 100 µM (inactive)
- GI50 (U-251): > 100 µM (inactive)
- GI50 (UO-31): > 100 µM (inactive)
- GI50 (NCI-H226): > 100 µM (inactive)
- GI50 (HL-60): > 100 µM (inactive)
- GI50 (OVCAR-4): > 100 µM (inactive)
- GI50 (SNB-19): > 100 µM (inactive)
- GI50 (SR): > 100 µM (inactive)
- GI50 (UACC-62): > 100 µM (inactive)

Compound: CC(=O)Nc1ccc(S(=O)(=O)/N=c2/sc(S(N)(=O)=O)nn2C)cc1
- GI50 (NCI-H460): > 100 µM (inactive)
- GI50 (SF-268): > 100 µM (inactive)
- GI50 (SNB-75): > 100 µM (inactive)
- GI50 (ACHN): > 100 µM (inactive)
- GI50 (EKVX): > 100 µM (inactive)
- GI50 (OVCAR-8): > 100 µM (inactive)
- GI50 (MOLT-4): > 100 µM (inactive)
- GI50 (A549): > 100 µM (inactive)
- GI50 (NCI/ADR-RES): > 100 µM (inactive)
- GI50 (A498): > 100 µM (inactive)
- GI50 (HCT-15): > 100 µM
- GI50 (HCC 2998): > 100 µM (inactive)
- GI50 (TK-10): > 100 µM (inactive)
- GI50 (MDA-MB-435): > 100 µM (inactive)
- GI50 (BT-549): > 100 µM (inactive)
- GI50 (SW-620): > 100 µM (inactive)
- GI50 (OVCAR-3): > 100 µM (inactive)
- GI50 (Malme-3M): > 100 µM (inactive)
- GI50 (HCT-116): > 100 µM (inactive)
- GI50 (HOP-92): > 100 µM (inactive)
- GI50 (M14): > 100 µM (inactive)
- GI50 (SK-OV-3): > 100 µM (inactive)
- GI50 (786-0): > 100 µM (inactive)
- GI50 (SF-295): > 100 µM (inactive)
- GI50 (SK-MEL-28): > 100 µM (inactive)
- GI50 (MDA-MB-231): > 100 µM (inactive)
- GI50 (NCI-H23): > 100 µM (inactive)
- GI50 (SK-MEL-2): > 100 µM (inactive)
- GI50 (SF-539): > 100 µM (inactive)
- GI50 (HOP-62): > 100 µM (inactive)
- GI50 (RPMI-8226): > 100 µM (inactive)
- GI50 (HT-29): > 100 µM (inactive)
- GI50 (CAKI-1): > 100 µM (inactive)
- GI50 (PC-3): > 100 µM (inactive)
- GI50 (KM12): > 100 µM (inactive)
- GI50 (RXF 393): > 100 µM (inactive)
- GI50 (OVCAR-5): > 100 µM (inactive)
- GI50 (U-251): > 100 µM (inactive)
- GI50 (UO-31): > 100 µM (inactive)
- GI50 (COLO 205): > 100 µM (inactive)
- GI50 (NCI-H226): > 100 µM (inactive)
- GI50 (NCI-H522): > 100 µM (inactive)
- GI50 (HL-60): > 100 µM (inactive)
- GI50 (OVCAR-4): > 100 µM (inactive)
- GI50 (DU-145): > 100 µM (inactive)
- GI50 (SNB-19): > 100 µM (inactive)
- GI50 (SR): > 100 µM (inactive)
- GI50 (UACC-62): > 100 µM (inactive)
